The values that follow come from US4895841A (priority 1987, dated 1990).

Series [1] relates to passive avoidance learning impairment induced by scopolamine. The experiment in a line: Action on passive avoidance learning impairment induced by scopolamine. The format is in vivo, Male Wistar rats. To be noted: scopolamine 0.5 mg/kg i.p. As for the experimental part: Action on passive avoidance learning impairment induced by scopolamine
See Z. Bokolanecky & Jarvik: Int. J. Neuropharmacol, 6, 217-222(1967).
Male Wistar rats were used as the test animal and a step-through light and dark box was used as an apparatus. A sample to detect was orally administered one hour before the training and the rats were treated with 0.5 mg/kg (i.p.) of scopolamine 30 min. before the training. In a training experiment, the animal was placed into a light room and, just after the animal had entered into a dark room, a guillotine door was closed, followed by delivery of an electric shock from the gid of the floor. After six hours, the animal was again placed into a light room for a retention experiment, and the time taken for the animal to enter the dark room was measured for evaluation of the effect of the sample.
The difference in the response time between the physiological saline administration group and the scopolamine administration group was taken as 100%, and the effect of the sample was expressed in terms of the percentage antagonism by the sample (Reverse %).
The number of animals per dose was 10 to 17.

Series [2] concerns the target T1, acetylcholinesterase (Mus musculus, UniProt P21836).
T1 construct: A mouse brain homogenate was used as an acetylcholinesterase source; from tissue; host or cells: mouse brain homogenate
In words: biochemical. Type of series: biochemical.

The next series is described as follows: Toxicity tests on rats. The following applies: rat, in vivo, no serious toxicity.
The test system of series [3] is acetylcholinesterase. In words: Ex vivo acetylcholinesterase inhibitory action in rat cerebral hemispheres after oral administration. The following applies: 1 h after administration, vs saline control.
Text: A sample to detect was orally administered to rats. After one hour of the administration, the cerebral hemispheres were dissected and homogenized, followed by the determination of the acetylcholinesterase activity. The group of rats treated with physiological saline was used as the control. Inhibition of AChE by samples ex vivo was expressed in terms of inhibition percent of the control value.
Where [4] appears, read: 0.25 mg/kg oral 1 h before training.
Setting [5] is: 0.5 mg/kg oral 1 h before training.
[6] abbreviates: 1.0 mg/kg oral 1 h before training.
Setting [7] is: read-out: AChE inhibitory activity IC50.
Setting [8] is: read-out: Inhibitory activity on AChE IC50.

pIC50: −log10 of the molar value. Structures can show the parent of a compound that is named as a salt. Where two headings read alike, the source gives them in different places. A value given as a limit tells only on which side of the number the result lay.

T1 sequence (P21836 32-614): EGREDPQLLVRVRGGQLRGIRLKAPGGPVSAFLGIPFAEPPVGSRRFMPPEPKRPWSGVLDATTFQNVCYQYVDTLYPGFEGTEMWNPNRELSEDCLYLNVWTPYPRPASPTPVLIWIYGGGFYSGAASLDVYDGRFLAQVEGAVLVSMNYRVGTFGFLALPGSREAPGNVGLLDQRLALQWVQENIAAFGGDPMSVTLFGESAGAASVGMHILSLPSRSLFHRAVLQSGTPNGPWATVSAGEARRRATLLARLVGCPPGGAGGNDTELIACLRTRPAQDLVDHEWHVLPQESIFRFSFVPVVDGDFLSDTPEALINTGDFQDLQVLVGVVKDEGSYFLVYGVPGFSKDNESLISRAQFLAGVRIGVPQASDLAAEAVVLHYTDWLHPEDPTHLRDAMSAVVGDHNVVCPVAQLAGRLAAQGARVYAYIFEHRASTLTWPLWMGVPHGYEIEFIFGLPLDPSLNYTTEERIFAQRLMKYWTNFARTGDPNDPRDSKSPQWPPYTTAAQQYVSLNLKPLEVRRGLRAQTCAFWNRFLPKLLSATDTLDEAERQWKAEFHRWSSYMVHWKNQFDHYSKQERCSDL

For the compound `COc1cc2c(cc1OC)C(=O)C(CC1CCN(Cc3ccccc3)CC1)C2` (stereo not drawn) [Example 4, 1-Benzyl-4-[(5,6-dimethoxy-1-indanon)-2-yl]-methylpiperidine hydrochloride], the “Reverse % (percentage antagonism of scopolamine effect)” value in series [1] (0.125 mg/kg oral 1 h before training) is 55%; in series [1] (setting [4]), 36%. As to `CC(C)OC(=O)c1nccnc1C(=O)NCCC1CCN(Cc2ccccc2)CC1` [Example 13], the entries for the “Reverse % (percentage antagonism of scopolamine effect)” value in series [1] (setting [4]) and in series [1] (setting [5]) were 39% and 27%, respectively. The negative logarithm of the IC50 (pIC50) against acetylcholinesterase [2] is 7.59. In the series “Toxicity tests on rats”, this compound gave an LD50 of at least 100 mg/kg. On to `O=C(NCCC1CCN(Cc2ccccc2)CC1)c1cnc2ccccc2n1` [Example 15, N-[4'-(1'-Benzylpiperidyl)ethyl]-2-quinoxalinecarboxylic amide], for which the “Reverse % (percentage antagonism of scopolamine effect)” value in series [1] (setting [6]) is listed as 51%; in series [1] (2.0 mg/kg oral 1 h before training), 30%. Moreover, on acetylcholinesterase [2] (setting [7]), the negative logarithm of the IC50 (pIC50) is 7.03. In addition, the “AChE inhibitory action (%)” value in the series on acetylcholinesterase [3] (10 mg/kg oral) came to 5%; in the series with acetylcholinesterase [3] (30 mg/kg oral) it was 14%; with acetylcholinesterase [3] (100 mg/kg oral) it was 18%. The same compound gave an LD50 in the series “Toxicity tests on rats” of at least 100 mg/kg.

Take `O=C(c1ccncc1)N(CCC1CCN(Cc2ccccc2)CC1)c1ccccc1` [Example 19, dihydrochloride]: the results for the “Reverse % (percentage antagonism of scopolamine effect)” value in series [1] (setting [5]) and in series [1] (setting [6]) were 37% and 39%, respectively. In addition, on acetylcholinesterase [2] (setting [7]), the pIC50 was 7.19. The same compound returned an LD50 in “Toxicity tests on rats” of at least 100 mg/kg. Take `CCN1CC(=O)N(CCC2CCN(Cc3ccccc3)CC2)c2ccccc2C1` [Example 69]: the “Reverse % (percentage antagonism of scopolamine effect)” value in series [1] (setting [5]) was 22%; in series [1] (setting [6]), 38%. The same compound returned an LD50 in “Toxicity tests on rats” of at least 100 mg/kg. `COc1cc2c(cc1OC)C(=O)C(=CC=CC1CCN(Cc3ccccc3)CC1)C2` [Example 224, 1-benzyl-4-((5,6-dimethoxy-1-oxoindanon)-2-yl)propenylpiperidine] showed a pIC50 against acetylcholinesterase [2] of 8.52. Consider `COc1cc2c(cc1OC)C(=O)C(CN1CCC(Cc3ccccc3)CC1)C2` (stereo not drawn) [Example 225], for which, on acetylcholinesterase [2] (setting [8]), the negative logarithm of the IC50 (pIC50) is 6.32. In turn, `COc1cc2c(cc1OC)C(=O)C(CC1CC[N+]([O-])(Cc3ccccc3)CC1)C2` (stereo not drawn) [Example 226] showed a pIC50 at acetylcholinesterase [2] of 8.31.

Take `COc1cc2c(cc1OC)C(=O)C(CC1CCN(Cc3ccc(C)cc3)CC1)C2` (stereo not drawn) [Example 229]: the negative-log IC50 (pIC50) at acetylcholinesterase [2] (in vitro, mouse brain homogenate, Table 10, read-out: Inhibitory activity on AChE IC50) is 7.40. As to `COc1cc2c(cc1OC)C(=O)C(CC1CCN(Cc3ccccc3[N+](=O)[O-])CC1)C2` (stereo not drawn) [Example 230], on acetylcholinesterase [2] (setting [8]), the negative-log IC50 (pIC50) is 6.80. Compound `COc1cc2c(cc1OC)C(=O)C(CC1CCN(Cc3cccc(O)c3)CC1)C2` (stereo not drawn) [Example 233] gave a pIC50 on acetylcholinesterase [2] of 7.34. For the compound `COc1cc2c(cc1OC)C(=O)C(CC1CCN(Cc3ccc(O)cc3)CC1)C2` (stereo not drawn) [Example 234], on acetylcholinesterase [2], the negative-log IC50 (pIC50) is 8.74. At acetylcholinesterase [2], `COc1cccc(CN2CCC(CC3Cc4cc(OC)c(OC)cc4C3=O)CC2)c1` (stereo not drawn) [Example 235] showed a negative-log IC50 (pIC50) of 6.66. At acetylcholinesterase [2], `COc1ccc(CN2CCC(CC3Cc4cc(OC)c(OC)cc4C3=O)CC2)cc1` (stereo not drawn) [Example 236] had a pIC50 of 5.44. Consider `COc1cc2c(cc1OC)C(=O)C(CC1CCN(Cc3cccc(OCc4ccccc4)c3)CC1)C2` (stereo not drawn) [Example 237], for which the pIC50 against acetylcholinesterase [2] was 5.59. As for `COc1cc2c(cc1OC)C(=O)C(CC1CCN(Cc3cccnc3)CC1)C2` (stereo not drawn) [Example 238], the pIC50 at acetylcholinesterase [2] is 7.14. In the case of `COc1cc2c(cc1OC)C(=O)C(CC1CCN(Cc3cccc4ccccc34)CC1)C2` (stereo not drawn) [Example 241], the pIC50 against acetylcholinesterase [2] is 6.66.

As for `COc1cc2c(cc1OC)C(=O)C(CC1CCN(Cc3ccc4ccccc4c3)CC1)C2` (stereo not drawn) [Example 242], on acetylcholinesterase [2], the pIC50 was 5.54. `COc1ccc(CN2CCC(CC3Cc4cc(OC)c(OC)cc4C3=O)CC2)cc1OC` (stereo not drawn) [Example 243]: the pIC50 on acetylcholinesterase [2] is 5.40.

Turning to `COc1cc2c(cc1OC)C(=O)C(CC1CCN(Cc3cc(OC)c(OC)c(OC)c3)CC1)C2` (stereo not drawn) [Example 244], the pIC50 on acetylcholinesterase [2] was 5.31. For `COc1cc2c(cc1O)C(=O)C(CC1CCNCC1)C2` (stereo not drawn) [Example 245], the pIC50 against acetylcholinesterase [2] is 5.30. As for `COc1cc2c(cc1OC)C(=NNc1ccc([N+](=O)[O-])cc1[N+](=O)[O-])C(CC1CCN(Cc3ccccc3)CC1)C2` (stereo not drawn) [Example 246], the negative logarithm of the IC50 (pIC50) on acetylcholinesterase [2] was 5.36. The compound `COc1cc2c(cc1OC)C(=O)C(NC1CCN(Cc3ccccc3)CC1)C2` (stereo not drawn) [Example 248] gave a pIC50 against acetylcholinesterase [2] of 5.85. For the compound `COc1cc2c(cc1OC)C(=O)C(C(C1CCN(Cc3ccccc3)CC1)C1Cc3cc(OC)c(OC)cc3C1=O)C2` (stereo not drawn) [Example 249], the pIC50 against acetylcholinesterase [2] is 6.21.

What is called pIC50 is −log10 of the IC50, conventionally taken in molar units. What is called LD50 is the dose expected to kill half of the subjects tested.
